In US11701373B2, “Substituted bicyclic compounds” (BRISTOL-MYERS SQUIBB COMPANY, priority 2014, dated 2023):
“Also recorded” adds a separate entry of the source.

How the values were obtained:
Lewis rats = experiment: Blood Lymphocyte Reduction (BLR) Assay in rat; format: in vivo; conditions: for Percent reduction vs. control at 24 hr post-dose (blood lymphocytes): rat, oral, 0.1 mg/kg
Protocol: (§1) Blood Lymphocyte Reduction (BLR) Assay in Rodent:
(§2) Lewis rats or BALB/c mice were dosed orally with vehicle alone (polyethylene glycol 300, “PEG300”) or with test compounds. Compounds were dosed as a solution or suspension in the vehicle, adjusted to reflect the free amount of test article in the event that salt forms are utilized. Blood was drawn at 24 hr and blood lymphocyte counts were determined on an ADVIA 120 Hematology Analyzer (Siemens Healthcare Diagnostics). The results were measured as a reduction in the percentage of circulating lymphocytes as compared to the vehicle treated group at the time of measurement. The results represent the average results of all animals within each treatment group (n=2-4).

BALB/c mice = experiment: Blood Lymphocyte Reduction (BLR) Assay in mouse; format: in vivo
Protocol: as §1, §2

C57BL/6 mice = experiment: Mouse Experimental Autoimmune Encephalomyelitis Assay (EAE); format: in vivo; conditions: for Clinical scores on day 22, Mean: C57BL/6 mice, prophylactic, vehicle mean 4.1; for inhibition of disease progression as measured by clinical scores: C57Bl/6 mice, prophylactic oral dosing regimen
Protocol: Mouse Experimental Autoimmune Encephalomyelitis Assay (EAE)
Mice (C57BL/6 female, 6-8 weeks of age, Charles River, n=10 treatment group) were immunized subcutaneously with 150 μg MOG35-55 emulsified 1:1 with incomplete Freund's adjuvant (sigma) supplemented with 150 μg Mycobacterium tuberculosis H37RA (Difco Laboratories). 400 ng of pertussis toxin (CalBiochem) was injected intraperitoneally on the day of immunization and 2 day later. Clinical scoring and body weight were taken 3 times per week. Clinical scoring system: 0.5: partial tail weakness; 1: limp tail or waddling gait with tail tonicity; 1.5: waddling gait with partial tail weakness; 2: waddling gait with limp tail (ataxia); 2.5: ataxia with partial limb paralysis; 3: full paralysis of one limb; 3.5: full paralysis of one limbs with partial paralysis of a second limb; 4: full paralysis of two limbs; 4.5: moribund; 5: death. Mean clinical score was calculated by averaging the scores of all mice in each group. All procedures involving animals were reviewed and approved by the Institutional Animal Care Use Committee.

Male MRL/lpr mice = experiment: MRL/lpr Lupus Model (anti-dsDNA antibody titers, kidney histology); format: in vivo, mouse; conditions: for Anti-dsDNA antibody titers (23 weeks of age) (Mean): ratio to pooled MRL/lpr immune serum titer; for Kidney Histology (nephritis) 23 weeks of age (Mean): total score, highest possible 36
Protocol: MRL/lpr is a spontaneous model of lupus. Male MRL/lpr mice (Jackson Laboratory) at the age of 12-14 weeks were enrolled for the study (N=12). Mice were dosed p.o. daily with vehicle (18.4% (w/v) hydroxypropyl-b-cyclodextrin in 13.8 mM citric acid) or with Example 681 at 0.06, 0.3, 1.5 mg/kg. Mice were bled every other week for anti-dsDNA antibodies measured by ELISA using pooled serum from diseased MRL/lpr mice as a positive comparator in each assay. The data were expressed in arbitrary units as a ratio of the titer of the test serum to the titer of the pooled MRL/lpr immune serum.
At the end of study, one kidney was collected into 10% neutral buffered formalin and ZincTris fixatives. Fixed tissues were processed into paraffin blocks, sectioned at 3p m, and stained with H&E or PASH. Kidney sections were graded using following criteria: Glomerular Damage: 1. Mesangial matrix thickening, cell proliferation, 2. Crescent formation, cellular deposits/casts in Bowman's space, 3. Cellular infiltration, mononuclear cells in glomerular tufts, 4. Fibrosis of Bowman's capsule. Tubular damage: 1. Infiltration of mononuclear cells, 2. Severity of tubular damage, 3. Protein casts. Tubulo-interstitial damage: 1. Fibrosis, 2. Infiltration of mononuclear cells. Each subcategory was assigned a score from 0-4, with the scores for glomerular indices representing the mean from 20 glomeruli per kidney. The total score for each mouse was the sum of the above 9 subcategories, with the highest possible score=36.

Male Lewis rats = experiment: Rat Adjuvant Induced Arthritis Assay (AA); format: in vivo; conditions: prophylactic oral dosing regimen
Protocol: Rat Adjuvant Induced Arthritis Assay (AA)
The rat adjuvant-induced arthritis model is an animal model for human rheumatoid arthritis.
Male Lewis rats (150-175 g; Harlan, n=8 treatment group) were immunized at the base of the tail with 100 μl of 10 mg/ml freshly ground Mycobacterium butyricum (Difco Laboratories) in incomplete Freund's adjuvant (sigma). Animals were dosed once daily with the test article (as a solution or suspension in the vehicle) or vehicle alone (polyethylene glycol 300, “PEG300”) starting from the day of immunization. The volumes of their hind paws were measured in a water displacement plethysmometer (Ugo Basile, Italy). The baseline paw measurements were taken before onset of the disease (between day 7 to day 10). The paw measurements were then taken three times a week until the end of the study on day 20 to 21. All procedures involving animals were reviewed and approved by the Institutional Animal Care Use Committee.

Female Lewis rats = experiment: Rat Experimental Autoimmune Encephalomyelitis (EAE); format: in vivo; conditions: prophylactic oral dosing regimen
Protocol: Rat Experimental Autoimmune Encephalomyelitis (EAE)
Female Lewis rats (150-200 g; Harlan) were immunized at the base of the tail with 0.1 ml of a complete Freund's adjuvant emulsion containing 0.5 mg/mL guinea pig myelin basic protein (Genemed Synthesis) and 2 mg/mL Mycobacterium butyricum (Difco). Beginning on Day 7, rats (n=11/group) were scored individually at least 3×/wk according to the following scheme:
Average clinical scores were calculated for each treatment group on each day of assessment.

## COCCCCCC1CCc2cc([C@@H]3CC[C@](N)(CO)C3)ccc2C1 (single isomer, unassigned) [Example 675]
Lewis rats
  Percent reduction vs. control at 24 hr post-dose (blood lymphocytes): 63%

## COc1ccccc1CC[C@H]1CCc2cc([C@H]3CC[C@](N)(CO)C3)ccc2C1 [Example 682, ((1R,3S)-1-amino-3-((R)-6-(2-methoxyphenethyl)-5,6,7,8-tetrahydronaphthalen-2-yl)cyclopentyl)methanol]
Lewis rats
  Percent reduction vs. control at 24 hr post-dose (blood lymphocytes): 17%

## ((1R,3S)-1-amino-3-((S)-6-(2-methoxyphenethyl)-5,6,7,8-tetrahydronaphthalen-2-yl)cyclopentyl)methanol [Example 681]
Lewis rats
  Percent reduction vs. control at 24 hr post-dose (blood lymphocytes): 53%
Lewis rats; rodent BLR assay, 0.1 mg/kg oral, 24 hours post-dose, versus vehicle group
  lymphocyte reduction: 53%
BALB/c mice; mice, 0.5 mg/kg oral, 24 hours post dose
  lymphocyte reduction: 85%
BALB/c mice; mouse, oral, 0.5 mg/kg, 24 hr post-dose
  Mouse Blood Lymphocyte Reduction Assay at 24 hr post-dose Percent reduction vs. control: 85%
C57BL/6 mice; 0.1 mg/kg oral
  Clinical scores on day 22, Mean: 3.1
C57BL/6 mice; 0.5 mg/kg oral
  Clinical scores on day 22, Mean: 1.1
C57BL/6 mice; 2 mg/kg oral
  Clinical scores on day 22, Mean: 0.8
C57BL/6 mice
  inhibition of disease progression as measured by clinical scores: showed inhibition of disease progression; also recorded: inhibit disease progression
Male MRL/lpr mice; 0.06 mg/kg p.o. daily
  Anti-dsDNA antibody titers (23 weeks of age) (Mean): 1.861 arbitrary units
  Kidney Histology (nephritis) 23 weeks of age (Mean): 10.13
Male MRL/lpr mice; 0.3 mg/kg p.o. daily
  Anti-dsDNA antibody titers (23 weeks of age) (Mean): 0.978 arbitrary units
  Kidney Histology (nephritis) 23 weeks of age (Mean): 10.00
Male MRL/lpr mice; 1.5 mg/kg p.o. daily
  Anti-dsDNA antibody titers (23 weeks of age) (Mean): 1.023 arbitrary units
  Kidney Histology (nephritis) 23 weeks of age (Mean): 12.63
Male MRL/lpr mice; p.o. daily
  inhibition of disease progression as measured by anti-dsDNA titers: showed inhibition of disease progression
  inhibition of disease progression as measured by kidney histology: showed inhibition of disease progression

## CCOCCC[C@H]1CCc2cc([C@H]3CC[C@](N)(CO)C3)ccc2C1 [Example 678, ((1R,3S)-1-amino-3-((R)-6-(3-ethoxypropyl)-5,6,7,8-tetrahydronaphthalen-2-yl)cyclopentyl)methanol]
Lewis rats
  Percent reduction vs. control at 24 hr post-dose (blood lymphocytes): 16%

## COCCCCCC1CCc2cc([C@@H]3CC[C@](N)(CO)C3)ccc2C1 (single isomer, unassigned) [Example 674]
Lewis rats
  Percent reduction vs. control at 24 hr post-dose (blood lymphocytes): 30%

## CCOCCC[C@@H]1CCc2cc([C@H]3CC[C@](N)(CO)C3)ccc2C1 [Example 679, ((1R,3S)-1-amino-3-((S)-6-(3-ethoxypropyl)-5,6,7,8-tetrahydronaphthalen-2-yl)cyclopentyl)methanol]
Lewis rats
  Percent reduction vs. control at 24 hr post-dose (blood lymphocytes): 65%
Male Lewis rats
  inhibition of disease progression as measured by reduced paw swelling: showed inhibition of disease progression
C57BL/6 mice
  inhibition of disease progression as measured by clinical scores: showed inhibition of disease progression; also recorded: inhibit disease progression
Female Lewis rats
  inhibition of disease progression as measured by reduced clinical scores: showed inhibition of disease progression

## COCCCCC[C@H]1CCc2cc([C@H]3CC[C@](N)(CO)C3)ccc2C1 [Example 672, ((1R,3S)-1-amino-3-((S)-6-(5-methoxypentyl)-5,6,7,8-tetrahydronaphthalen-2-yl)cyclopentyl)methanol]
Male Lewis rats
  inhibition of disease progression as measured by reduced paw swelling: showed inhibition of disease progression
